Results: patent US20240368406A1, “STABLE LIQUID PHANTOM FOR NEAR-INFRARED FLUORESCENCE VERIFICATION” (SURGVISION GMBH, priority 2021, published 2024)

Experiments:
Type in all cases: physicochemical
[1] = Stability of the phantom solutions at +2-8° C. (residual absorbance, UV/VIS)
Protocol: Several stability studies were performed to evaluate the effect of different buffers, additives such as excipients or preservatives, and storage conditions on the dye formulation. In particular the stability of the formulations after storage at +2-8° C. in a refrigerator was firstly investigated.
(§1) Stability was measured as reduction in the absorbance at the maximum wavelength of the dye acquired using a UV/VIS spectrophotometer, denoting reduction of the dye monomer content in solution. All the results were then reported as residual percentage vs the baseline (T=0), wherein at time=0 the percentage is 100%. A decrease in absorbance is associated with the reduction of the concentration of the dye in the formulation buffer, indicating low stability and degradation of the main chromophore species.
In the Tables below the residual absorbance of different dyes, i.e. […] and S0456, in some representative organic buffering solutions is reported after storage of the formulations at +2-8° C.

[2] = Stability of the phantom solutions at +2-8° C. in the presence of additives (residual absorbance); conditions: +2-8° C.
Protocol: as §1
The effect of the presence of an additive on the stability of the formulations of the invention has been also investigated.
The preparation of the above buffers is described below:
50 mM HEPES (pH 7.4)+0.04% Tween 20: to prepare 100 mL of buffering solution, 1.19 g of HEPES were dissolved in 80 mL of water; 40 μL of Tween 20 were added and the pH was adjusted to 7.4 with 0.1 M HCl. The buffering solution was then brought to 100 mL volume with water and filtered on 0.22 μm membrane in sterile conditions.
50 mM HEPES (PH 7.4)+0.02% Sodium Azide: to prepare 100 mL of buffering solution, 1.19 g of HEPES and 20 mg of Sodium Azide were dissolved in 80 mL of water and the pH was adjusted to 7.4 with 0.1 M HCl. The buffering solution was then brought to 100 mL volume with water and filtered on 0.22 μm membrane in sterile conditions.
10 mM HEPES (PH 7.0)+10% EtOH: to prepare 100 mL of buffering solution, 0.24 g of HEPES were dissolved in 80 mL of water and the pH was adjusted to 7.0 with 0.1 M HCl.
Then, 10 mL of 100% Ethanol were added. The buffering solution was then brought to 100 mL volume with water and filtered on 0.22 μm membrane in sterile conditions.
Analogous solutions were prepared with the same procedure for MOPS, BES and TRICINE buffers.

[3] = Stability of the phantom solutions at +2-8° C. during long-term storage (residual absorbance); conditions: 3 μM dye in HEPES 10 mM, pH 7.0, +2-8° C. protected from light
Protocol: Stability was measured as reduction in the absorbance at the maximum wavelength of the dye acquired using a UV/VIS spectrophotometer, denoting reduction of the dye monomer content in solution. […] A decrease in absorbance is associated with the reduction of the concentration of the dye in the formulation buffer, indicating low stability and degradation of the main chromophore species. The stability of the formulations under long-term storage conditions was also investigated. In particular, samples of 3 μM IRDye […] and 3 μM IRDye 800BK dissolved in HEPES buffer were stored refrigerated at +2-8° C. protected from light exposure for at least 6 months. For the long-term stability study at 2-8° C., samples of.

CC1(C)C(/C=C/C2=C(Oc3ccc(S(=O)(=O)O)cc3)C(=C/C=C3\N(CCCCS(=O)(=O)[O-])c4ccc(S(=O)(=O)O)cc4C3(C)C)/CCC2)=[N+](CCCCS(=O)(=O)O)c2ccc(S(=O)(=O)O)cc21 [IRDye 800BK]
Residual absorbance percentage ([1]; 3 μM dye in BES buffer 10 mM, pH 7.0, +2-8° C., 1 week): 97.6% | Residual absorbance percentage ([1]; 3 μM dye in BES buffer 10 mM, pH 7.0, +2-8° C., 2 weeks): 94.8% | Residual absorbance percentage ([1]; 3 μM dye in BES buffer 10 mM, pH 7.0, +2-8° C., 4 weeks): 92.0% | Residual absorbance percentage ([1]; 3 μM dye in BES buffer 10 mM, pH 7.4, +2-8° C., 1 week): 97.6% | Residual absorbance percentage ([1]; 3 μM dye in BES buffer 10 mM, pH 7.4, +2-8° C., 2 weeks): 94.4% | Residual absorbance percentage ([1]; 3 μM dye in BES buffer 10 mM, pH 7.4, +2-8° C., 4 weeks): 91.5% | Residual absorbance percentage ([1]; 3 μM dye in BES buffer 10 mM, pH 7.8, +2-8° C., 1 week): 96.4% | Residual absorbance percentage ([1]; 3 μM dye in BES buffer 10 mM, pH 7.8, +2-8° C., 2 weeks): 92.4% | Residual absorbance percentage ([1]; 3 μM dye in BES buffer 10 mM, pH 7.8, +2-8° C., 4 weeks): 88.1% | Residual absorbance percentage ([1]; 3 μM dye in BES buffer 50 mM, pH 7.0, +2-8° C., 1 week): 96.8% | Residual absorbance percentage ([1]; 3 μM dye in BES buffer 50 mM, pH 7.0, +2-8° C., 2 weeks): 93.5% | Residual absorbance percentage ([1]; 3 μM dye in BES buffer 50 mM, pH 7.0, +2-8° C., 4 weeks): 90.0% | Residual absorbance percentage ([1]; 3 μM dye in BES buffer 50 mM, pH 7.4, +2-8° C., 1 week): 97.2% | Residual absorbance percentage ([1]; 3 μM dye in BES buffer 50 mM, pH 7.4, +2-8° C., 2 weeks): 94.0% | Residual absorbance percentage ([1]; 3 μM dye in BES buffer 50 mM, pH 7.4, +2-8° C., 4 weeks): 90.5% | Residual absorbance percentage ([1]; 3 μM dye in BES buffer 50 mM, pH 7.8, +2-8° C., 1 week): 95.9% | Residual absorbance percentage ([1]; 3 μM dye in BES buffer 50 mM, pH 7.8, +2-8° C., 2 weeks): 91.7% | Residual absorbance percentage ([1]; 3 μM dye in BES buffer 50 mM, pH 7.8, +2-8° C., 4 weeks): 89.6% | Residual absorbance percentage ([1]; 3 μM dye in MOPS buffer 10 mM, pH 7.0, +2-8° C., 1 week): 97.9% | Residual absorbance percentage ([1]; 3 μM dye in MOPS buffer 10 mM, pH 7.0, +2-8° C., 2 weeks): 95.7% | Residual absorbance percentage ([1]; 3 μM dye in MOPS buffer 10 mM, pH 7.0, +2-8° C., 4 weeks): 93.7% | Residual absorbance percentage ([1]; 3 μM dye in MOPS buffer 10 mM, pH 7.4, +2-8° C., 1 week): 97.9% | Residual absorbance percentage ([1]; 3 μM dye in MOPS buffer 10 mM, pH 7.4, +2-8° C., 2 weeks): 95.3% | Residual absorbance percentage ([1]; 3 μM dye in MOPS buffer 10 mM, pH 7.4, +2-8° C., 4 weeks): 93.6% | Residual absorbance percentage ([1]; 3 μM dye in MOPS buffer 10 mM, pH 7.8, +2-8° C., 1 week): 96.9% | Residual absorbance percentage ([1]; 3 μM dye in MOPS buffer 10 mM, pH 7.8, +2-8° C., 2 weeks): 94.1% | Residual absorbance percentage ([1]; 3 μM dye in MOPS buffer 10 mM, pH 7.8, +2-8° C., 4 weeks): 91.1% | Residual absorbance percentage ([1]; 3 μM dye in MOPS buffer 50 mM, pH 7.0, +2-8° C., 1 week): 97.4% | Residual absorbance percentage ([1]; 3 μM dye in MOPS buffer 50 mM, pH 7.0, +2-8° C., 2 weeks): 94.6% | Residual absorbance percentage ([1]; 3 μM dye in MOPS buffer 50 mM, pH 7.0, +2-8° C., 4 weeks): 92.0% | Residual absorbance percentage ([1]; 3 μM dye in MOPS buffer 50 mM, pH 7.4, +2-8° C., 1 week): 97.5% | Residual absorbance percentage ([1]; 3 μM dye in MOPS buffer 50 mM, pH 7.4, +2-8° C., 2 weeks): 94.9% | Residual absorbance percentage ([1]; 3 μM dye in MOPS buffer 50 mM, pH 7.4, +2-8° C., 4 weeks): 92.6% | Residual absorbance percentage ([1]; 3 μM dye in MOPS buffer 50 mM, pH 7.8, +2-8° C., 1 week): 97.0% | Residual absorbance percentage ([1]; 3 μM dye in MOPS buffer 50 mM, pH 7.8, +2-8° C., 2 weeks): 94.0% | Residual absorbance percentage ([1]; 3 μM dye in MOPS buffer 50 mM, pH 7.8, +2-8° C., 4 weeks): 91.3% | Residual absorbance percentage ([2]; 3 μM dye in BES (10 mM, pH 7.0) +10% EtOH, 1 week): 99.2% | Residual absorbance percentage ([2]; 3 μM dye in BES (10 mM, pH 7.0) +10% EtOH, 2 weeks): 98.2% | Residual absorbance percentage ([2]; 3 μM dye in BES (10 mM, pH 7.0) +10% EtOH, 4 weeks): 97.2% | Residual absorbance percentage ([2]; 3 μM dye in HEPES (10 mM, pH 7.0) +10% EtOH, 1 week): 97.8% | Residual absorbance percentage ([2]; 3 μM dye in HEPES (10 mM, pH 7.0) +10% EtOH, 2 weeks): 97.2% | Residual absorbance percentage ([2]; 3 μM dye in HEPES (10 mM, pH 7.0) +10% EtOH, 4 weeks): 95.1% | Residual absorbance percentage ([2]; 3 μM dye in MOPS (10 mM, pH 7.0) +10% EtOH, 1 week): 97.6% | Residual absorbance percentage ([2]; 3 μM dye in MOPS (10 mM, pH 7.0) +10% EtOH, 2 weeks): 95.8% | Residual absorbance percentage ([2]; 3 μM dye in MOPS (10 mM, pH 7.0) +10% EtOH, 4 weeks): 92.9% | Residual absorbance percentage ([3]; 1 month): 99.1% | Residual absorbance percentage ([3]; 3 months): 94.1% | Residual absorbance percentage ([3]; 6 months): 93.3%
